Source: patent publication US20120149718A1, “Amido Compounds” (priority 2010, published 2012)

Legend:
human P2X7 = biological target: T1, human P2X7 (Homo sapiens, UniProt Q99572); experiment: Intracellular Calcium Flux (FLIPR) Assay; type: cell-based; settings: 1321N1 cells stably expressing full length human P2X7; agonist 100 μM BzATP; fluo-3 calcium flux; read-out: FLIPR pIC50 hP2X7-1321n1 (converted)
T1 construct: 1321N1 cells stably expressing the full length human P2X7 gene (1321N1-hP2X7)
T1 sequence (Q99572 1-595): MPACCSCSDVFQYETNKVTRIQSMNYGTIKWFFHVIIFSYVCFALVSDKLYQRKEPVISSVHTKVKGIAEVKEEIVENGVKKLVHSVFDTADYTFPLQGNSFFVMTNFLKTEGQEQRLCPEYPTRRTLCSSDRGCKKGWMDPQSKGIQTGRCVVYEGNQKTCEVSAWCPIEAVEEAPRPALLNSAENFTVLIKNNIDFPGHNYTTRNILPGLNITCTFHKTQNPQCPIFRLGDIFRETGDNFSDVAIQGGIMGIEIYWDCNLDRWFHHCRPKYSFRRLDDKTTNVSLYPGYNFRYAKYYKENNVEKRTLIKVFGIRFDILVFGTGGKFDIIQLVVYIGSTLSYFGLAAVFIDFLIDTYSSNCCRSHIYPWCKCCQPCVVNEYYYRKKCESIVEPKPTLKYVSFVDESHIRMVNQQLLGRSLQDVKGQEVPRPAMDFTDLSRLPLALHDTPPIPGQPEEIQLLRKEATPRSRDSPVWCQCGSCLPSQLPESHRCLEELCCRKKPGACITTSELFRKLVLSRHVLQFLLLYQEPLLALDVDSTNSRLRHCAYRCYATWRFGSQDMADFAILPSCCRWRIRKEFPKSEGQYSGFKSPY
Method: Stock solutions of compounds were prepared from powders as a 10 mM DMSO stock solution. These solutions were stored at RT during the two week period of these experiments to prevent freeze-thaw of the DMSO stocks. The DMSO stocks were added to the appropriate assay buffer at a concentration of 10 μM, and then diluted serially to the final concentrations that were tested. No observable precipitate was formed at any time during this process. The aqueous solutions of compounds as well as ATP (Sigma A7699) and BzATP (Sigma B6396) were prepared fresh for each day of experiment.
1321N1 cells stably expressing the full length human P2X7 gene (1321N1-hP2X7) and HEK293 cells stably expressing the full length rat P2X7 gene (HEK293-rP2X7) were obtained from the Roche Cell Culture Facility. 1321N1-hP2X7 cells were grown in Dulbecco's Modified Eagle's Medium (DMEM) high glucose supplemented with 10% FBS and 250 μg/mL G418. HEK293-rP2X7 cells were grown in DMEM/F-12 supplemented with 10% FBS, 1 mM CaCl2, 2 mM MgCl2, 2 mM L-Glutamine and 500 μg/ml G418. Cells were split such that they never became >70% confluent.
On the day prior to the experiment, 1321N1-hP2X7 or HEK293-rP2X7 cells were released into suspension with calcium-free PBS+Versene and washed by centrifugation with calcium-free PBS to remove the Versene. Cells were resuspended in growth medium at a density of 2.5×10^5 cells/mL and seeded into black walled, clear bottom 96 well plates (50,000 cells/well) approximately 18 hr prior to intracellular calcium flux experiments.
On the day of the experiment, plates were washed with FLIPR buffer (calcium- and magnesium-free Hank's Balanced Salt Solution (HBSS) supplemented with 10 mM Hepes, 2.5 mM probenecid and 2 mM calcium chloride) using a BIO-TEK 96 channel plate washer and incubated with […] fluo-3 dye at 37° C. for one hr. The dye was then removed by plate washing and the cells were allowed to equilibrate for 20 min at room temperature with antagonist or vehicle (FLIPR buffer). Agonist (100 μM BzATP final concentration for hP2X7; 5 μM BzATP final concentration or rP2X7) was added online with the FLIPR and fluorescence measurements made at 1 sec intervals for 60 sec followed by 3 sec intervals for a further 4 min (5 min total). A final addition of 5 μM ionomycin was made and the maximal BzATP-evoked fluorescence normalized to the maximal ionomycin-evoked fluorescence.

Row | Compound | IC50 (human P2X7) [nM] | melting point [°C]
1 | CS(=O)(=O)c1ccc(C(Cc2ccc(F)cc2Cl)C(=O)Nc2nc3ccccc3o2)cc1 (centres unmarked) [Compound I-6, N-Benzooxazol-2-yl-3-(2-chloro-4-fluoro-phenyl)-2-(4-methanesulfonyl-phenyl)-propionamide] | 794 | 127 to 128
2 | Cc1ccccc1CC(C(=O)Nc1cnc(Br)cn1)c1ccc(S(C)(=O)=O)cc1 (centres unmarked) [Compound I-1, N-(5-Bromo-pyrazin-2-yl)-2-(4-methanesulfonyl-phenyl)-3-o-tolyl-propionamide] | 389 | 193.5 to 194.8
3 | CS(=O)(=O)c1ccc(C(Cc2ccc(F)cc2)C(=O)Nc2cncc(Cl)n2)cc1 (centres unmarked) [Compound I-25, N-(6-Chloro-pyrazin-2-yl)-3-(4-fluoro-phenyl)-2-(4-methanesulfonyl-phenyl)-propionamide] | 851 | 191.6 to 192.7
4 | CCOCc1cnc(NC(=O)C(Cc2ccc(F)cc2)c2ccc(S(C)(=O)=O)cc2)cn1 (centres unmarked) [Compound I-22, N-(5-Ethoxymethyl-pyrazin-2-yl)-3-(4-fluoro-phenyl)-2-(4-methanesulfonyl-phenyl)-propionamide] | 741 | 99 to 100
